Laboratory results published in patent EP4786464A1, “COMPOUND AS GLUTAMINE CYCLASE INHIBITOR” (Simcere Pharmaceutical Co., Ltd., priority 2023, dated 2025).

Assays:
[1] = biological target: T1, human QPCT (Homo sapiens, UniProt Q16769); test: Inhibition of human QPCT enzyme activity (SensoLyte Green Glutaminyl Cyclase Activity Assay Kit); type: biochemical; settings: fluorescence Ex/Em = 490 nm/520 nm
T1 construct: purchased Anaspec AS-72230
Procedure: (§1) The inhibition of human QPCT/QPCTL enzyme activity by the compounds was assessed using SensoLyte® Green Glutaminyl Cyclase Activity Assay Kit.
(§2) The working solutions of the test compounds were serially 6-fold diluted from an initial concentration of 200 µM to 7 concentration points in total. In the 75 µL reaction system, the initial working concentration of the test compound was 13.3 µM, and the final concentration of DMSO was 0.3%. 20 µL of prepared QPCT enzyme solution, 5 µL of test compound, and 25 µL of QPCT enzyme substrate were successively added to each well of a 384-well plate. The mixture was shaken on a microplate shaker for 1 min, centrifuged at 400 g for 1 min, and incubated at 37 °C for 30 min. Then, 25 µL of QPCT developer was added to each well, and the mixture was sufficiently mixed using a shaker for 1 min, centrifuged at 400 g for 1 min, and incubated at 37 °C for another 60 min. After the incubation was completed, the fluorescence values were read using a microplate reader, with parameter settings as follows: Ex/Em = 490 nm/520 nm. […] Curves were plotted using GraphPad Prism 9 software with the compound concentration (nM) as the abscissa and the enzyme activity inhibition rate (%) as the ordinate. Four-parameter fitting was performed, and the IC50 values for the inhibition of the QPCT enzyme activity by the compounds were calculated.

[2] = biological target: T2, human QPCTL (Homo sapiens, UniProt Q9NXS2); test: Inhibition of human QPCTL enzyme activity (adjusted SensoLyte Green Glutaminyl Cyclase Activity Assay Kit); type: biochemical; settings: human QPCTL enzyme (Sino Biological)
T2 construct: purchased Sino Biological NXS6-1
T2 sequence (Q9NXS2 whole entry): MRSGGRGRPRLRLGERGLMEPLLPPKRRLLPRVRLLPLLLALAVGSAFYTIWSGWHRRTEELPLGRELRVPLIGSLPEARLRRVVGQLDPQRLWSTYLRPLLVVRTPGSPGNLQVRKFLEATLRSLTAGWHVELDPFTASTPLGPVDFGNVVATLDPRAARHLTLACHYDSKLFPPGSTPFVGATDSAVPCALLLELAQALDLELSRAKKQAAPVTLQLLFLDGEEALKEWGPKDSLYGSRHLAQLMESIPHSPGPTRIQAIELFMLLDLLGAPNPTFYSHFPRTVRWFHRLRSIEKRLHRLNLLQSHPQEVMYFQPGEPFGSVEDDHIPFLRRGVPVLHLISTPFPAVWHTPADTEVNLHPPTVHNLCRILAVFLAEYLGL
Procedure: as §1
as §2, with “0.5 mM QPCT enzyme substrate was diluted to 5 µM with a buffer at a ratio of 1:100; 50 µg/mL QPCT enzyme was diluted to 125 ng/mL with a buffer and placed on ice for later use; QPCT developer was diluted with a buffer at a ratio of 1:250 and placed on ice for later use (the QPCT enzyme substrate, the QPCT enzyme, the buffer, and the QPCT developer were all from the kit). The working” for “The working”
The SensoLyte® Green Glutaminyl Cyclase Activity Assay Kit was appropriately adjusted by replacing the QPCT enzyme in it with human QPCTL enzyme (Sino Biological, Cat. No. NXS6-1) (the concentration of the working solution was kept unchanged) for determining the IC50 values for the inhibition of human QPCTL enzyme activity by compounds. […]

[3] = biological target: T3, CYP2C9 (Homo sapiens, UniProt P11712); test: Inhibition of CYP2C9 enzyme activity in liver microsomes; type: in vitro ADME; settings: substrate diclofenac, 15 min
T3 construct: 1 µL of 20 mg/mL liver microsome solution; from tissue; host or cells: liver microsomes
T3 sequence (P11712 whole entry): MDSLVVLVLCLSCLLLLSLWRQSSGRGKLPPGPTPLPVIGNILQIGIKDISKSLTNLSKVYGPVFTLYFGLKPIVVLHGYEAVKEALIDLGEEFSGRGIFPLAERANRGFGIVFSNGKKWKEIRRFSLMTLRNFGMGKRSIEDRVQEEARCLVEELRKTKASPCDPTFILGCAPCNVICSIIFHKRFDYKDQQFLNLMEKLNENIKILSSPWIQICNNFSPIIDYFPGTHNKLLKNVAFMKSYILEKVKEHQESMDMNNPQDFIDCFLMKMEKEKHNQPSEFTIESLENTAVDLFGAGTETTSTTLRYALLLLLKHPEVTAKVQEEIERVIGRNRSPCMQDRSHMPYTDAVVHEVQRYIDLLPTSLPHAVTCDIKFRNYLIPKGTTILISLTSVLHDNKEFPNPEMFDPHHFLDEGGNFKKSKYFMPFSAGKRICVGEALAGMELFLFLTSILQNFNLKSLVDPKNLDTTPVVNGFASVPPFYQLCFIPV

[4] = biological target: T4, CYP2D6 (Homo sapiens, UniProt P10635); test: Inhibition of CYP2D6 enzyme activity in liver microsomes; type: in vitro ADME; settings: substrate dextromethorphan, 15 min
T4 construct: 1 µL of 20 mg/mL liver microsome solution; from tissue; host or cells: liver microsomes
T4 sequence (P10635 whole entry): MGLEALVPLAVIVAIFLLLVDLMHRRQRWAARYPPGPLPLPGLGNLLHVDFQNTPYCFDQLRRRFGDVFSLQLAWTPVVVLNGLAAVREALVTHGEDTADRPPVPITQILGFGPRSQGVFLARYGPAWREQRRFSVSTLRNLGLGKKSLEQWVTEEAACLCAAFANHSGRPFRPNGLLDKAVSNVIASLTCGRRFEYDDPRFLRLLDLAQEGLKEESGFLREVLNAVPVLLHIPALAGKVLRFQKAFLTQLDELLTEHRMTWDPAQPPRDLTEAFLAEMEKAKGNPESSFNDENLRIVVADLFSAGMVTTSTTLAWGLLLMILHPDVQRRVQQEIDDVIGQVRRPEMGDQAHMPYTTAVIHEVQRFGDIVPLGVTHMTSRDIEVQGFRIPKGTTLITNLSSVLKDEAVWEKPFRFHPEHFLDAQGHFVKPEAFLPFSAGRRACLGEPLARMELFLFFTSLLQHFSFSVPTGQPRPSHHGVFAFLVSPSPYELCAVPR

[5] = biological target: T5, CYP3A4 (Homo sapiens, UniProt P08684); test: Inhibition of CYP3A4 enzyme activity in liver microsomes; type: in vitro ADME; settings: substrate midazolam, 15 min
T5 construct: 1 µL of 20 mg/mL liver microsome solution; from tissue; host or cells: liver microsomes
T5 sequence (P08684 whole entry): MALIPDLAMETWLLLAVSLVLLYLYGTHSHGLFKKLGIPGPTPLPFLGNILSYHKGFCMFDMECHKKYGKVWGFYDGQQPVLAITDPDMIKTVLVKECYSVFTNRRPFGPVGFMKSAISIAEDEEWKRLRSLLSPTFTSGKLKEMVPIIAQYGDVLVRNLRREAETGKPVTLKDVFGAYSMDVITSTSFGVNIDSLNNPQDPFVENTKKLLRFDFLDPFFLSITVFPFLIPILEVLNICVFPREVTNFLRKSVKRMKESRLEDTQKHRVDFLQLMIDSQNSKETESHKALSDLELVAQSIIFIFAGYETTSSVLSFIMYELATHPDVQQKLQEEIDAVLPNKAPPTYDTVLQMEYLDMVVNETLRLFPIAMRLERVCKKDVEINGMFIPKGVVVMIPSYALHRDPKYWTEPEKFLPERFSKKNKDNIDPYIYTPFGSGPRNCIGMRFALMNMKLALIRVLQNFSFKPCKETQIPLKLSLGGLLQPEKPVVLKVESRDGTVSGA

[6] = Metabolic stability in liver microsomes (human); type: in vitro ADME; settings: pH 7.4; human liver microsomes 0.5 mg/mL, 1 µM compound, 1 mM NADPH; read-out: Half-life (t1/2, min) (human)
Procedure: (§3) The experimental procedures were as follows: 1. […] 2. Preparation of reaction system The reaction system was prepared as follows:
(§4) 3. The reaction system was pre-incubated in a 37 °C water bath for 10 min. 20 µL of 10 mM NADPH solution (NADPH was dissolved by 100 mM phosphate-buffered saline) was added to the reaction system with a final concentration of NADPH being 1 mM. 20 µL phosphate-buffered saline was used instead of the NADPH solution to serve as the negative control. The negative control was used to exclude the effect of chemical stability of the compound itself. 4. The reaction was initiated by adding 2 µL of 100 µM compound of the present disclosure and verapamil, the positive control compound, to the reaction system with a final concentration of the compound being 1 µM. 5.
(§5) All data were calculated using Microsoft Excel software. The peak area was obtained by extracting an ion chromatogram.

[7] = Metabolic stability in liver microsomes (mouse); type: in vitro ADME; settings: pH 7.4; mouse liver microsomes 0.5 mg/mL, 1 µM compound, 1 mM NADPH; read-out: Half-life (t1/2, min) (mouse)
Procedure: as §3, §4, §5

T1 sequence (Q16769 29-361): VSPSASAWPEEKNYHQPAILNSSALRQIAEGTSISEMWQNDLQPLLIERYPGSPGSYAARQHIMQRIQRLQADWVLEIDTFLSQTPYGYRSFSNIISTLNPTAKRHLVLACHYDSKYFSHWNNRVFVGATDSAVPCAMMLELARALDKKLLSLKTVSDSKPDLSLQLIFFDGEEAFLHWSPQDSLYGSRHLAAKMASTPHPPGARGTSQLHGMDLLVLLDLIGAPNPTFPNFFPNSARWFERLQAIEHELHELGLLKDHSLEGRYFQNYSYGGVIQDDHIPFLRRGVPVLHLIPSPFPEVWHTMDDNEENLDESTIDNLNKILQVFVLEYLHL

IC50 [1]	Compound	other results
37.3 nM	CC12CC([C@H]3CC(=O)N3c3ccc4nc[nH]c4c3)(C1)C2 [Compound 9]	
170 nM	O=C1C[C@H](C23CC(F)(C2)C3)N1c1ccc2[nH]cnc2c1 [Compound 2]	
73.2 nM	O=C1C[C@H](C23CC(Cl)(C2)C3)N1c1ccc2[nH]cnc2c1 [Compound 13]	
166 nM	COC12CC([C@H]3CC(=O)N3c3ccc4[nH]cnc4c3)(C1)C2 [Compound 8]	
52.4 nM	CCCOC12CC([C@H]3CC(=O)N3c3ccc4[nH]cnc4c3)(C1)C2 [Compound 3]	IC50 [2]: 6.5 nM

Second part, the compound before the results:

Compound	IC50 [1]	other results
[2H][C@]1(C23CC(C2)C3)CC(=O)N1c1ccc2[nH]cnc2c1 [Compound 11]	42.5 nM	
O=C1C[C@H](C23CC(CF)(C2)C3)N1c1ccc2nc[nH]c2c1 [Compound 10]	58.9 nM	
O=C1C[C@H](C23CC(c4ccncc4)(C2)C3)N1c1ccc2[nH]cnc2c1 [Compound 5]	8.5 nM	
O=C1C[C@H](C23CC(N4CCOCC4)(C2)C3)N1c1ccc2[nH]cnc2c1 [Compound 7]	36.8 nM	IC50 [2]: 25.1 nM; IC50 [3]: > 50 µM; IC50 [4]: > 50 µM; IC50 [5]: > 50 µM; half-life at 1 µM [6]: 316 min; half-life at 1 µM [7]: 325 min
N#Cc1ccc(C23CC([C@H]4CC(=O)N4c4ccc5[nH]cnc5c4)(C2)C3)cc1 [Compound 6]	19.1 nM	
O=C1C[C@H](C23CC(c4ccc(F)cc4)(C2)C3)N1c1ccc2[nH]cnc2c1 [Compound 4]	10.7 nM	IC50 [2]: 3.9 nM
